Experimental data taken from patent US7556930B2, “CD39L3 and its role in diabetes” (Metabolex Inc., priority 2005, dated 2009).
Read-outs that look alike come from different tables or passages of the source. One block for each compound: values may come before it.

Assays:
full length human CD39L3 [1] = target: T1, full length human CD39L3 (Homo sapiens, UniProt O75355, A496V); test: Piper Phosphate Assay of CD39L3 nucleotide hydrolysis activity in transiently transfected HEK293 cells; assay type: biochemical
T1 construct: Cells were transiently transfected with the full length human CD39L3 clone; expressed in transfected cells; host or cells: HEK293 cells, transiently transfected; frozen and thawed intact cells
T1 sequence (O75355 1-529 A496V): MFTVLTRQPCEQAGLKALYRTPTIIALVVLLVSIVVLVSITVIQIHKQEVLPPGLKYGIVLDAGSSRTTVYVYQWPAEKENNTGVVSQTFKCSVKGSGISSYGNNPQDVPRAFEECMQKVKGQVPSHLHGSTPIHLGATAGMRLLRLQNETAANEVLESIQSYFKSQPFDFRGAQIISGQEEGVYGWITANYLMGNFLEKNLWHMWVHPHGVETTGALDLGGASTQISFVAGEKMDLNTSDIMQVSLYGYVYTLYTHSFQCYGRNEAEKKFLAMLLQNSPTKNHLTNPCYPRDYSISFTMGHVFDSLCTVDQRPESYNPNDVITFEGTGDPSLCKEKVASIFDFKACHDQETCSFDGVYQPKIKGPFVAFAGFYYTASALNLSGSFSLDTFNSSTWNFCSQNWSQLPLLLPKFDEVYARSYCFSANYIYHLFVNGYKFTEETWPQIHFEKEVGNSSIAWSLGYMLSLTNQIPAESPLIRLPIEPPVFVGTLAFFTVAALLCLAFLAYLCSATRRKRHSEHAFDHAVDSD
Method: (§1) FIG. 4 illustrates the Km of ATP determined for full length human CD39L3 in transiently transfected HEK293 cells. The Km of ATP values determined under two concentrations of each cation source: CaCl2 and MgCl2. […] Activity assays were performed with the Piper Phosphate Assay (Molecular Probes).
(§2) FIG. 5 illustrates the Km of ADP determined for full length human CD39L3 in transiently transfected HEK293 cells. The Km of ADP values determined under two concentrations of each cation source: CaCl2 and MgCl2. […] Activity assays were performed with the Piper Phosphate Assay (Invitrogen).
(§3) FIG. 6 illustrates the inhibition of CD39L3 examined with the general ectoATPase inhibitor, ARL 67156. HEK293 cells were transiently transfected with full length human CD39L3. […] Activity assays were performed with the Piper Phosphate Assay (Molecular Probes).
(§4) As the activity of CD39L3 involves the hydrolysis of nucleoside triphosphates and diphosphates, Molecular Probes' Piper Phosphate Assay Kit™, which is an assay that detects free phosphate, a product of the hydrolysis, was used.
(§5) Cells were transiently transfected with the full length human CD39L3 clone were measured for nucleotide hydrolysis activity in suspension or adhered to the plate, within an isotonic buffer including the required cation cofactor, calcium or magnesium. Batches of transiently transfected CD39L3 cells were produced and frozen until use.
(§6) Using cells that were frozen and thawed, the Piper Phosphate Assay was used to determine the Km of ATP and ADP for the full length human CD39L3 clone (FIGS. 4 and 5). In addition, to validate the detection of an inhibitor with this assay format, a general ectoATPase inhibitor, ARL 67156, was examined.

full length human CD39L3 [2] = target: T2, full length human CD39L3 (Homo sapiens, UniProt O75355); test: as above; assay type: biochemical; settings: HEK293 cells transiently transfected with full length human CD39L3, read-out: IC50, inhibition of CD39L3
T2 construct: Cells were transiently transfected with the full length human CD39L3 clone; expressed in transfected cells; host or cells: HEK293 cells, transiently transfected; frozen and thawed intact cells
T2 sequence (O75355 1-529 A496V): T1 sequence (O75355 1-529 A496V)
Method: as §1, §2, §3, §4, §5, §6

- Km (full length human CD39L3 [1]; 1 mM CaCl2, read-out: Km of ADP): 42 µM
- Km (full length human CD39L3 [1]; 1 mM MgCl2, read-out: Km of ADP): 35 µM
- Km (full length human CD39L3 [1]; 5 mM CaCl2, read-out: Km of ADP): 39 µM
- Km (full length human CD39L3 [1]; 5 mM MgCl2, read-out: Km of ADP): 44 µM
SMILES: Nc1ncnc2c1ncn2[C@@H]1O[C@H](COP(=O)(O)OP(=O)(O)O)[C@@H](O)[C@H]1O [ADP]

SMILES: CCN(CC)c1ncnc2c1ncn2[C@@H]1O[C@H](COP(=O)(O)OP(=O)(O)C(Br)(Br)P(=O)(O)O)[C@@H](O)[C@H]1O [ARL 67156]
- IC50 (full length human CD39L3 [2]; 40 uM ADP+5 mM CaCl2): 59 µM
- IC50 (full length human CD39L3 [2]; 40 uM ADP+5 mM MgCl2): 57 µM
- IC50 (full length human CD39L3 [2]; 65 μM ATP+5 mM CaCl2): 49 µM
- IC50 (full length human CD39L3 [2]; 65 uM ATP+5 mM MgCl2): 59 µM

- Km (full length human CD39L3 [1]; 1 mM CaCl2, read-out: Km of ATP): 105 µM
- Km (full length human CD39L3 [1]; 1 mM MgCl2, read-out: Km of ATP): 60 µM
- Km (full length human CD39L3 [1]; 5 mM CaCl2, read-out: Km of ATP): 85 µM
- Km (full length human CD39L3 [1]; 5 mM MgCl2, read-out: Km of ATP): 52 µM
SMILES: Nc1ncnc2c1ncn2[C@@H]1O[C@H](COP(=O)(O)OP(=O)(O)OP(=O)(O)O)[C@@H](O)[C@H]1O [ATP]
